From US4201790A, “Benzophenone derivatives” (May & Baker Limited, priority 1975, dated 1980)

Key:
[1] = tested on: β-adrenoceptors in the heart; assay: Test I. β-Adrenoceptor blocking activity in the anaesthetised cat (intravenous), cardiac (isoprenaline tachycardia); assay type: in vivo; details: hydrochloride salts, isoprenaline 210 seconds after test compound
Method: (§1) Test I. β-Adrenoceptor blocking activity in the anaesthetised cat (intravenous administration).
(§2) Cats were anaesthetised with a mixture of pentobarbitone (6-12 mg./kg.) and chloralose suspension (80 mg./kg.) administered intraperitoneally. The heart rate was recorded from the E.C.G. or from the pulse, and blood pressure was recorded from the carotid artery. Whole (0.3-0.6 μg.) and half (0.15-0.3 μg.) doses of isoprenaline were then administered, intravenously via the jugular vein, alternately at 7 minute intervals over a period of several hours. 210 seconds after a half dose of isoprenaline, one of the compounds under test was administered intravenously. 210 seconds later the whole dose of isoprenaline was administered. The doses of the test compound required to reduce (1) the tachycardia and (2) the fall in diastolic blood pressure produced by the whole dose of isoprenaline to that produced by the half dose were determined. The former response gives a measure of the ability of the test compound to block β-adrenoceptors in the heart while the latter response gives a measure of the ability of the test compound to block the β-adrenoceptors mediating vasodilation.
(§3) Those hydrochloride salts of compounds A, G, H and J were dissolved in water and administered in aqueous solution. Compounds B, C, D, E, F and I were each dissolved in dilute aqueous hydrochloric acid solution (0.1 N) and the solution thus obtained was neutralised by treatment with aqueous sodium hydroxide solution (0.1 N), to give a neutral solution of the hydrochloride salt of the test compound suitable for administration.

[2] = Acute toxicity, mouse, intravenous; details: in vivo, read-out: i.v. LD80
[3] = tested on: β-adrenoceptors mediating vasodilation; assay: Test I. β-Adrenoceptor blocking activity in the anaesthetised cat (intravenous), vascular (isoprenaline fall in diastolic blood pressure); assay type: in vivo; details: for i.v. Dose Vascular (dose required to reduce fall in diastolic blood pressure produced by whole dose of isoprenaline to that produced by half dose): hydrochloride salts, isoprenaline 210 seconds after test compound; for Ratio cardiac dose / vascular dose: i.v.
Method: as §1, §2, §3

[4] = Acute toxicity, mouse, oral; details: in vivo
[5] = tested on: β-adrenoceptors in the heart; assay: Test III. β-Adrenoceptor blocking activity in the anaesthetised dog (oral), cardiac; assay type: in vivo; details: hydrochloride salt
Method: as §2
(§4) Test III. β-Adrenoceptor blocking activity in the anaesthetised dog (oral administration)
(§5) Test compound A(hydrochloride salt) was tested orally in anaesthetised dogs by proceeding in a similar fashion to that described above in Test I and Test II. The results are expressed below in Table III.

[6] = tested on: β-adrenoceptors mediating vasodilation; assay: Test III. β-Adrenoceptor blocking activity in the anaesthetised dog (oral), vascular; assay type: in vivo; details: hydrochloride salt
Method: as §2, §4, §5

[7] = tested on: β-adrenoceptors mediating vasodilation; assay: Test II. β-Adrenoceptor blocking activity in the anaesthetised rhesus monkey (intravenous), vascular; assay type: in vivo; details: i.v., hydrochloride salt
Method: as §2
(§6) Test II. β-Adrenoceptor blocking activity in the anaesthetised rhesus monkey and in the anaesthetised dog (intravenous administration)
(§7) Test compound A (hydrochloride salt) was tested intravenously in anaesthetised rhesus monkeys and dogs by proceeding in a similar fashion to that described above in Test I.

[8] = tested on: β-adrenoceptors in the heart; assay: Test II. β-Adrenoceptor blocking activity in the anaesthetised dog (intravenous), cardiac; assay type: in vivo; details: i.v., hydrochloride salt
Method: as §2, §6, §7

[9] = Toxicity, dog, oral, two weeks; assay type: in vivo, dog (beagle); details: beagles, oral daily doses of 10, 50 or 100 mg./kg. during two weeks
Method: Two groups, each of two males and two females, each received a daily dose of 10 or 50 mg./kg. animal body weight and one group, of one male and one female, received a daily dose of 100 mg./kg. animal body weight.

[10] = tested on: β-adrenoceptors in the heart; assay: Test II. β-Adrenoceptor blocking activity in the anaesthetised rhesus monkey (intravenous), cardiac; assay type: in vivo; details: i.v., hydrochloride salt
Method: as §2, §6, §7

[11] = Toxicity, rat, oral, two weeks; assay type: in vivo; details: oral daily doses of 12, 24, 48 or 96 mg./kg. during two weeks
[12] = tested on: β-adrenoceptors mediating vasodilation; assay: Test II. β-Adrenoceptor blocking activity in the anaesthetised dog (intravenous), vascular; assay type: in vivo; details: i.v., hydrochloride salt
Method: as §2, §6, §7

Compound	i.v. Dose Cardiac (dose required to reduce tachycardia produced by whole dose of isoprenaline to that produced by half dose) [1]	LD50 [2]	i.v. Dose Vascular (dose required to reduce fall in diastolic blood pressure produced by whole dose of isoprenaline to that produced by half dose) [3]	Ratio cardiac dose / vascular dose [3]	further results
Cc1ccc(C(=O)c2c(C)cc(C)cc2OCC(O)CNC(C)C)cc1 (racemic) [B, DL-1-(3,5-dimethyl-2-p-toluoylphenoxy)-2-hydroxy-3-isopropylaminopropane]	2.9 mg./kg. animal body weight	25 to 31 mg/kg	0.031 mg./kg. animal body weight	93.5	LD50 [4]: ~1000 mg/kg
Cc1cc(C)c(C(=O)c2ccccc2)c(OCC(O)CNC(C)C)c1 (racemic) [Compound A, DL-1-(2-benzoyl-3,5-dimethylphenoxy)-2-hydroxy-3-isopropylaminopropane]	1.1 mg./kg. animal body weight	40 mg/kg	0.023 mg./kg. animal body weight	48	Oral dose cardiac ([5]; 1 hour after dose): 4 mg./kg. animal body weight; Oral dose cardiac ([5]; 2 hours after dose): 3.2 mg./kg. animal body weight; Oral dose cardiac ([5]; 3 hours after dose): 6 mg./kg. animal body weight; Oral dose vascular ([6]; 1 hour after dose): < 0.1 mg./kg. animal body weight; Oral dose vascular ([6]; 2 hours after dose): 0.08 mg./kg. animal body weight; Oral dose vascular ([6]; 3 hours after dose): 0.1 mg./kg. animal body weight; Dose vascular ([7]; 210 second interval after dose): 0.0087 mg./kg. animal body weight; Dose vascular ([7]; one hour interval after dose): 0.0076 mg./kg. animal body weight; Dose cardiac ([8]; 210 second interval after dose): 0.1 mg./kg. animal body weight; Dose cardiac ([8]; one hour interval after dose): 0.13 mg./kg. animal body weight; tolerability [9]: well tolerated; Dose cardiac ([10]; 210 second interval after dose): 0.1 mg./kg. animal body weight; Dose cardiac ([10]; one hour interval after dose): > 1 mg./kg. animal body weight; tolerability [11]: well tolerated; Dose vascular ([12]; 210 second interval after dose): < 0.02 mg./kg. animal body weight; Dose vascular ([12]; one hour interval after dose): < 0.02 mg./kg. animal body weight
Cc1cc(C)c(C(=O)c2ccccc2)c(OCC(O)CNC(C)C)c1C (racemic) [Compound C, DL-1-(2-benzoyl-3,5,6-trimethylphenoxy)-2-hydroxy-3-isopropylaminopropane]	4.4 mg./kg. animal body weight	23 mg/kg	2.3 mg./kg. animal body weight	1.9	
Cc1ccc(C(=O)c2c(C)cc(C)cc2OCC(O)CNC(C)(C)C)cc1 (racemic) [Compound I, DL-1-t-butylamino-3-(3,5-dimethyl-2-p-toluoylphenoxy)-2-hydroxypropane]	0.46 mg./kg. animal body weight	24 mg/kg	0.027 mg./kg. animal body weight	17	
Cc1ccc(C(=O)c2c(C)cc(C)cc2OCC(O)CNCCc2ccccc2)cc1 (racemic) [Compound J, DL-1-(3,5-dimethyl-2-p-toluoylphenoxy)-2-hydroxy-3-(2-phenylethylamino)propane]	~2.0 mg./kg. animal body weight		0.068 mg./kg. animal body weight	29	
Cc1cc(C)c(C(=O)c2ccccc2C)c(OCC(O)CNC(C)C)c1 (racemic) [D, DL-1-(3,5-dimethyl-2-o-toluoylphenoxy)-2-hydroxy-3-isopropylaminopropane]	0.8 mg./kg. animal body weight	34 mg/kg	0.16 mg./kg. animal body weight	5.0	
Cc1cc(C)c(C(=O)c2c(C)cccc2C)c(OCC(O)CNC(C)C)c1 (racemic) [E, DL-1-[2-(2,6-dimethylbenzoyl)-3,5-dimethylphenoxy]-2-hydroxy-3-isopropylaminopropane]	3.7 mg./kg. animal body weight	42 mg/kg	1.8 mg./kg. animal body weight	2.1	
Cc1ccc(C(=O)c2c(C)cc(C)cc2OCC(O)CNC(C)C)c(C)c1 (racemic) [F, DL-1-[2-(2,4-dimethylbenzoyl)-3,5-dimethylphenoxy]-2-hydroxy-3-isopropylaminopropane]	0.59 mg./kg. animal body weight	24 mg/kg	0.24 mg./kg. animal body weight	2.5	
Cc1ccc(C)c(C(=O)c2ccccc2)c1OCC(O)CNC(C)C (racemic) [G, DL-1-(2-benzoyl-3,6-dimethylphenoxy)-2-hydroxy-3-isopropylaminopropane]	7.1 mg./kg. animal body weight		4.2 mg./kg. animal body weight	1.7	
Cc1cc(C)c(C(=O)c2ccc(Cl)cc2)c(OCC(O)CNC(C)C)c1 (racemic) [H, DL-1-(2-p-chlorobenzoyl-3,5-dimethylphenoxy)-2-hydroxy-3-isopropylaminopropane]	0.72 mg./kg. animal body weight	32 to 40 mg/kg	0.037 mg./kg. animal body weight	19	
